For 27 molecules, IC50 results are on record in patent USRE47739E1, “2-(pyridin-2-ylamino)-pyrido[2,3-D]pyrimidin-7-ones” (Warner-Lambert Company LLC, priority 2002, dated 2019).

The structures appear in SMILES notation. Where a name gives a salt, the structure may show the parent alone.

For experiment [1], the target named is Cdk4/Cyclin D (Homo sapiens, UniProt P11802). In words: Assay for Inhibition of Cdk4/Cyclin D. Format: biochemical. The note with it: 25 μM ATP, retinoblastoma protein substrate, 25° C., 15 minutes. On the procedure:
(§1) The assays were carried out as described below.
Assay for Inhibition of Cdk4/Cyclin D
The Cdk4 enzyme assay for IC50 determination and kinetic evaluation is performed as follows. 96-well filter plates (Millipore MADVN6550) are used. […] Buffer A containing excess EDTA was used to determine the level of background ^32P in the absence of enzyme activity. All components except the ATP are added to the wells, and the plate is placed on a plate mixer for 2 minutes. The reaction is started by adding [^32P]ATP, and the plate is incubated at 25° C. for 15 minutes. The reaction is terminated by addition of 0.1 mL 20% trichloroacetic acid (TCA). The plate is kept at 4° C. for at least 1 hour to allow the substrate to precipitate. The wells are then washed five times with 0.2 mL 10% TCA, and ^32P incorporation is determined with a beta plate counter (Wallac Inc., Gaithersburg, Md.).

The target of experiment [2] is FGF receptor (FGFr) tyrosine kinase (Homo sapiens, UniProt P11362). Put plainly: Assay for Inhibition of FGFr. Format: biochemical. The conditions noted are these: 50 μM ATP, Poly (4:1) glutamate-tyrosine substrate, 25° C. On the procedure: as §1
Assay for Inhibition of FGFr
For FGF receptor (FGFr) tyrosine kinase assays 96-well plates (100 μL/incubation/well), and conditions are optimized to measure the incorporation of ^32P from [γ^32P]ATP into a glutamate-tyrosine co-polymer substrate. Briefly, to each well is added 82.5 μL incubation buffer B (25 mM Hepes (pH 7.0), 150 mM NaCl, 0.1% Triton X-100, 0.2 mM PMSF, 0.2 mM Na3VO4, 10 mM MnCl2) and 750 μg/mL Poly (4:1) glutamate-tyrosine followed by 2.5 μL of the test compound in buffer B and 5 μL of a 7.5 μg/μL FGFr solution to initiate the reaction. Following a 10-minute incubation at 25° C., […] [γ^32P]ATP (0.4 μCi plus 50 μM ATP) is added to each well, and samples are incubated for an additional 10 minutes at 25° C. The reaction is terminated by the addition of 100 μL 30% trichloroacetic acid (TCA) containing 20 mM sodium pyrophosphate and precipitation of material onto glass fiber mats (Wallac). […] Nonspecific activity is defined as radioactivity retained on the filters following incubation of samples with buffer alone (no enzyme). Specific enzymatic activity (enzyme plus buffer) is defined as total activity minus nonspecific activity.

FGF receptor (FGFr) tyrosine kinase, sequence (P11362 22-822): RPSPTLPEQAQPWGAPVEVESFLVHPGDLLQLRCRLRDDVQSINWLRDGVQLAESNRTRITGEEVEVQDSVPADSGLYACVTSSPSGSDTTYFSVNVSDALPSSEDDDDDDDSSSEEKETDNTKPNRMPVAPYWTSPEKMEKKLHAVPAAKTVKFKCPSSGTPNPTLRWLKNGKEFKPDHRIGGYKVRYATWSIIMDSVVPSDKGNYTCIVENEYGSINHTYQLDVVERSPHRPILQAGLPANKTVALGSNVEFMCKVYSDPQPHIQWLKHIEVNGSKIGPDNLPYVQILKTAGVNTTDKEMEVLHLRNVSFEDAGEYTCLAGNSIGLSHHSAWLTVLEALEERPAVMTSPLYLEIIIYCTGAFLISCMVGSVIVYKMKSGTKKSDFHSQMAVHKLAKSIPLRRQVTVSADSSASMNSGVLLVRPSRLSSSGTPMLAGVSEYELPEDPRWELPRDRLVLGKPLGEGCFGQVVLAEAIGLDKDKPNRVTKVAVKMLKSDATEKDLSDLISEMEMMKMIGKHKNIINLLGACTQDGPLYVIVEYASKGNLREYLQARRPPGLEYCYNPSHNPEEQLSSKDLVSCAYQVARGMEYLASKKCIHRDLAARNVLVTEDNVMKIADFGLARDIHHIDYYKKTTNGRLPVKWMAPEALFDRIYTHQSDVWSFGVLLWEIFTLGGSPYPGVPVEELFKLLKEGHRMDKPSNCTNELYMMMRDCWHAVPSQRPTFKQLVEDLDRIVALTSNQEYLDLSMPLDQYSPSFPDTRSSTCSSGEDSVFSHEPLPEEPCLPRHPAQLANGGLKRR
Cdk4/Cyclin D, sequence (P11802 whole entry, species assumed): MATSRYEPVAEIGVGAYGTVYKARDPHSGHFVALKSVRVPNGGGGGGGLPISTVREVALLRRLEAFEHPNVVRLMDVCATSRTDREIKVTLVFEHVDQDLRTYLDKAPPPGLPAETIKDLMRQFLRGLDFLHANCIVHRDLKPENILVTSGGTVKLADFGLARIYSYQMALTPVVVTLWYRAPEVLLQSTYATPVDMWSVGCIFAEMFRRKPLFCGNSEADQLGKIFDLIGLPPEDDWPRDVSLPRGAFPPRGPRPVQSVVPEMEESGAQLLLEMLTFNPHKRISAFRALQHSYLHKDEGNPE
Cdk4/Cyclin D, sequence (P24385 whole entry partner, species assumed): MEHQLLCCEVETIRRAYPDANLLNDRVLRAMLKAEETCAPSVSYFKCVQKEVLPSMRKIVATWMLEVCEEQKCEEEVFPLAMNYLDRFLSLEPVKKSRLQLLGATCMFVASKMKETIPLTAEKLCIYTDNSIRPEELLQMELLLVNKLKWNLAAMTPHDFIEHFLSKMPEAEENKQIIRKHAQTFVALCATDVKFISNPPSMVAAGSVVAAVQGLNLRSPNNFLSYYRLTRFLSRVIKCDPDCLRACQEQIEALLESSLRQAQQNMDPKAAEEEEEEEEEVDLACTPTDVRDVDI

Regarding `CC(=O)c1c(C)c2cnc(Nc3ccc(N4CCOCC4)cn3)nc2n(C2CCCC2)c1=O` [Example 100, 6-Acetyl-8-cyclopentyl-5-methyl-2-(5-morpholin-4-yl-pyridin-2-ylamino)-8H-pyrido[2,3-d]pyrimidin-7-one], the 50% inhibitory concentration (IC50) in experiment [1] was 4 nM; in experiment [2] it was greater than 5 µM.

For `Cc1c(Br)c(=O)n(C2CCCC2)c2nc(Nc3ccc(N4CCOCC4)cn3)ncc12` [Example 98, 6-Bromo-8-cyclopentyl-5-methyl-2-(5-morpholin-4-yl-pyridin-2-ylamino)-8H-pyrido[2,3-d]pyrimidin-7-one], the IC50 in experiment [1] is 1950 nM; in experiment [2] it was greater than 5 µM.

In the case of `CC(=O)c1cc2cnc(Nc3ccc(N4CCNCC4)cn3)nc2n(C2CCCC2)c1=O` [Example 33, 6-Acetyl-8-cyclopentyl-2-(5-piperazin-1-yl-pyridin-2-ylamino)-8H-pyrido[2.3-d]pyrimidin-7-one hydrochloride], the IC50 in experiment [1] is 123 nM; in experiment [2], greater than 5 µM.

On to `O=c1c(CO)cc2cnc(Nc3ccc(N4CCNCC4)cn3)nc2n1C1CCCC1` [Example 29, 8-Cyclopentyl-6-hydroxymethyl-2-(5-piperazin-1-yl-pyridin-2-ylamino)-8H-pyrido[2,3-d]pyrimidin-7-one hydrochloride], for which the IC50 is 13 nM in experiment [1] and 4.38 µM in experiment [2].

As to `O=c1c(Br)cc2cnc(Nc3ccccn3)nc2n1C1CCCCC1` [Example 13, 6-Bromo-8-cyclohexyl-2-(pyridin-2-yl-amino)-8H-pyrido[2,3-d]pyrimidin-7-one], in experiment [1], the IC50 is greater than 5000 nM.

As for `O=c1c(Br)cc2cnc(Nc3ccccn3)nc2n1C1CCCC1` [Example 38, 6-Bromo-8-cyclopentyl-2-(Pyridin-2-ylamino)-8H-pyrido[2,3-]pyrimidin-7-one], the results for the IC50 in experiment [1] and in experiment [2] were 950 nM and greater than 5 µM, respectively.

For `CC(=O)c1c(C)c2cnc(Nc3ccc(N4CC(C)OC(C)C4)cn3)nc2n(C2CCCC2)c1=O` (stereo not drawn) [Example 130, 6-Acetyl-8-cyclopentyl-2-[5-(2,6-dimethyl-morpholin-4-yl)-pyridin-2-ylamino]-5-methyl-8H-pyrido[2,3-d]pyrimidin-7-one], the 50% inhibitory concentration (IC50) in experiment [1] is 30 nM; in experiment [2] it was greater than 5 µM.

As to `COCCOCc1cc2cnc(Nc3ccc(N4CCNCC4)cn3)nc2n(C2CCCC2)c1=O` [Example 112, 8-Cyclopentyl-6-(2-methoxy-ethoxymethyl)-2-(5-piperazin-1-yl-pyridin-2-ylamino)-8H-pyrido[2,3-d]pyrimidin-7-one], the IC50 was 31 nM in experiment [1] and greater than 5 µM in experiment [2].

Regarding `Cc1c(Br)c(=O)n(C2CCCC2)c2nc(Nc3ccc(N4CCCCC4)cn3)ncc12` [Example 103, 6-Bromo-8-cyclopentyl-5-methyl-2-(3,4,5,6-tetrahydro-2H-[1,3]bipyridinyl-6′-ylamino)-8H-pyrido[2,3-d]pyrimidin-7-one], the half-maximal inhibitory concentration (IC50) in experiment [1] was greater than 5000 nM.

Turning to `CCOCCc1cc2cnc(Nc3ccc(N4CCNCC4)cn3)nc2n(C2CCCC2)c1=O` [Example 108, 8-Cyclopentyl-6-(2-ethoxy-ethyl)-2-(5-piperazin-1-yl-pyridin-2-ylamino)-8H-pyrido[2,3-d]pyrimidin-7-one], the half-inhibitory concentration (IC50) in experiment [1] is 124 nM; in experiment [2], greater than 5 µM.

The molecule `NC(=O)c1ccc(Nc2ncc3cc(Br)c(=O)n(C4CCCC4)c3n2)nc1` [Example 14] came in with a half-maximal inhibitory concentration (IC50) in experiment [1] of 260 nM.

As for `CCc1cc2cnc(Nc3ccc(N4CCNCC4)cn3)nc2n(C2CCCC2)c1=O` [Example 5, 8-Cyclopentyl-6-ethyl-2-(5-piperazin-1-yl-pyridin-2-ylamino)-8H-pyrido[2,3-d]pyrimidin-7-one hydrochloride], the figures for the IC50 in experiment [1] and in experiment [2] were 19 nM and 0.99 µM, respectively.

In the case of `Cc1c(Br)c(=O)n(C2CCCC2)c2nc(Nc3ccc(N4CCC(O)CC4)cn3)ncc12` [Example 75, 6-Bromo-8-cyclopentyl-2-(4-hydroxy-3,4,5,6-tetrahydro-2H-[1,3′]bipyridinyl-6′-ylamino)-5-methyl-8H-pyrido[2,3-d]pyrimidin-7-one], the IC50 in experiment [1] is 74 nM; in experiment [2] it was greater than 5 µM.

In experiment [1], `CC(=O)c1c(C)c2cnc(Nc3ccc(N4CCN(C)CC4)cn3)nc2n(C2CCCC2)c1=O` [Example 72, 6-Acetyl-8-cyclopentyl-5-methyl-2-[5-(4-methyl-piperazin-1-yl)-pyridin-2-ylamino]-8H-pyrido[2,3-d]pyrimidin-7-one] returned a 50% inhibitory concentration (IC50) of 5 nM.

Take `CC(=O)c1c(C)c2cnc(Nc3ccc(N4CCNC(C)(C)C4)cn3)nc2n(C2CCCC2)c1=O` [Example 90, 6-Acetyl-8-cyclopentyl-2-[5-(3,3-dimethyl-piperazin-1-yl)-pyridin-2-ylamino]-5-methyl-8H-pyrido[2,3-d]pyrimidin-7-one]: the concentration for half-maximal inhibition (IC50) in experiment [1] is 21 nM; in experiment [2], greater than 5 µM.

For the molecule `CCOCc1cc2cnc(Nc3ccc(N4CCNCC4)cn3)nc2n(C2CCCC2)c1=O` [Example 116, 8-Cyclopentyl-6-ethoxymethyl-2-(5-piperazin-1-yl-pyridin-2-ylamino)-8H-pyrido[2,3-d]pyrimidin-7-one], the half-maximal inhibitory concentration (IC50) in experiment [1] was 18 nM; in experiment [2], greater than 5 µM.

As for `Cc1c(Br)c(=O)n(C2CCCC2)c2nc(Nc3ccc(N4CCNCC4)cn3)ncc12` [Example 15, 6-Bromo-8-cyclopentyl-5-methyl-2-(5-piperizin-1-yl-pyridin-2-ylamino)-8H-pyrido[2,3-d]pyrimidin-7-one], the concentration for half-maximal inhibition (IC50) is 160 nM in experiment [1] and greater than 5 µM in experiment [2].

`CC(C)n1c(=O)ccc2cnc(Nc3ccc(N4CCNCC4)cn3)nc21` [Example 57, 8-isopropyl-2-(5-piperazin-1-yl-pyridin-2-ylamino)-8H-pyrido[2.3-d]pyrimidin-7-one]: the results for the IC50 in experiment [1] and in experiment [2] were greater than 5000 nM and greater than 5 µM, respectively.

As to `Nc1cc2cnc(Nc3ccc(N4CCNCC4)cn3)nc2n(C2CCCC2)c1=O` [Example 11, 6-Amino-8-cyclopentyl-2-(5-piperazin-1-yl-pyridin-2-ylamino)-8H-pyrido[2,3-d]pyrimidin-7-one hydrochloride], the IC50 in experiment [1] amounted to 12 nM; in experiment [2], 2.12 µM.

Take `CC(=O)c1c(C)c2cnc(Nc3ccccn3)nc2n(C2CCCC2)c1=O` [Example 82, 6-Acetyl-8-cyclopentyl-5-methyl-2-(pyridin-2-ylamino)-8H-pyrido[2,3-d]pyrimindin-7-one]: the IC50 was 440 nM in experiment [1] and greater than 5 µM in experiment [2].

On to `CCOCCOc1cc2cnc(Nc3ccc(N4CCNCC4)cn3)nc2n(C2CCCC2)c1=O` [Example 53, 8-Cyclopentyl-6-(2-ethoxy-ethoxy)-2-(5-piperazin-1-yl-pyridin-2-ylamino)-8H-pyrido[2,3-d]pyrimidin-7-one], for which the half-inhibitory concentration (IC50) was 36 nM in experiment [1] and greater than 5 µM in experiment [2].

For the molecule `CC(C)COc1cc2cnc(Nc3ccc(N4CCNCC4)cn3)nc2n(C2CCCC2)c1=O` [Example 22, 8-Cyclopentyl-6-isobutoxy-2-(5-piperazin-1-yl-pyridin-2-ylamino)-8H-pyrido[2.3-d]pyrimidin-7-one hydrochloride], the IC50 in experiment [1] was 1700 nM; in experiment [2], greater than 5 µM.

`CCOC(=O)c1cc2cnc(Nc3ccc(N4CCNCC4)cn3)nc2n(C2CCCC2)c1=O` [Example 7, 8-Cyclopentyl-7-oxo-2-(5-piperazin-1-yl-pyridin-2-ylamino)-7,8-dihydro-pyrido[2,3-d]pyrimidine-6-carboxylic acid ethyl ester hydrochloride]: in experiment [1], the IC50 amounted to 595 nM.

With `CC(=O)c1c(C)c2cnc(Nc3ccc(N4CCCCC4)cn3)nc2n(C2CCCC2)c1=O` [Example 105, 6-Acetyl-8-cyclopentyl-5-methyl-2-(3,4,5,6-tetrahydro-2H-[1,3′]bipyridinyl-6′-ylamino)-8H-pyrido[2,3-d]pyrimidin-7-one], in experiment [1], half-maximal inhibition (IC50) required 5 nM.

In the case of `O=c1c(F)cc2cnc(Nc3ccc(N4CCNCC4)cn3)nc2n1C1CCCC1` [Example 18, 8-Cyclopentyl-6-fluoro-2-(5-piperazin-1-yl-pyridin-2-ylamino)-8H-pyrido[2,3-d]pyrimidin-7-one hydrochloride], the IC50 in experiment [1] amounted to 51 nM.

Molecule `CC(=O)c1c(C)c2cnc(Nc3ccc(N4CCC(O)CC4)cn3)nc2n(C2CCCC2)c1=O` [Example 77, 6-Acetyl-8-cyclopentyl-2-(4-hydroxy-3,4,5,6-tetrahydro-2H-[1,3′]bipyridinyl-6′-ylamino)-5-methyl-8H-pyrido[2,3-d]pyrimidin-7-one] displayed an IC50 in experiment [1] of 19 nM. Compared with the last molecule, the IC50 is about 2.7-fold lower.

In experiment [1], `CN1CCC[C@H]1c1ccc(Nc2ncc3cc(Br)c(=O)n(C4CCCC4)c3n2)nc1` [Example 12, 6-Bromo-8-cyclopentyl-2-[5-((S)-1-methyl-1-pyrrolidin-2-yl)-pyridin-2-ylamino]-8H-pyrido[2,3-d]pyrimidin-7-one hydrochloride] had a half-maximal inhibitory concentration (IC50) of 175 nM. This IC50 is about 9.2-fold higher than that of the molecule before.
